The test system of this assay is NIH3T3-HGL HSF-1 response element luciferase, 48 h. In words: HSF-1 reporter activators over prolonged exposure, confirmation, cell-based, mouse, luciferase, cherry-pick, dose (AID 602296).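 Note: test compounds applied by themselves with no MG132 co-treatment.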

Molecules are shown by their SMILES. Results filed as inconclusive are left out. Calls of active or inactive are those of the source.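 Rule for the calls: active = fitted activation curve crossing 40% at a concentration no higher than the sample's top valid tested dose; inconclusive = flat fitted curve at 30% to 70% activation, or poor curve fit; inactive = signal decrease, flat curve within 30%, or the rest.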 Bounds are passed on as bounds.

Take `N#CC(C#N)=C1C=CC=CN1/C(=C\c1ccccc1)C(=O)c1cccs1`: the AC40 is 12.3 µM.

For the compound `COc1cccc(-c2nnc(SCc3nc4ccccc4[nH]3)n2N)c1`, the AC40 is 18.6 µM.

As for `CCc1cccc(NC(=O)c2cccc(S(=O)(=O)N3CCN(C)CC3)c2)c1`, the AC40 is > 26 µM (inactive).

For the compound `Cn1c(Cl)cnc1C1CC(=O)c2cc(Cl)ccc2O1` (centres undefined), the AC40 is > 26 µM (inactive).

With `O=C1/C(=C/c2ccc([N+](=O)[O-])cc2)Oc2cc(O)ccc21`, the AC40 is > 26 µM (inactive).

As for `COc1ccc(C2(C)NC(=O)N(CC3CCCCC3)C2=O)cc1` (centres undefined), the AC40 is > 26 µM (inactive).

Take `O=C(CSc1cccc2cccnc12)N/N=C/c1cccnc1`: the AC40 was > 26 µM (inactive).

As for `CCCCOc1ccc(C(=O)N/N=C/c2cn[nH]c2-c2ccc(OC)c(OC)c2)cc1`, the AC40 was > 26 µM (inactive).

In the case of `O=C(O)C(Cc1ccccc1)N1C(=O)c2c(Cl)c(Cl)c(Cl)c(Cl)c2C1=O` (centres undefined), the AC40 was > 12 µM (inactive).

As to `CCOC(=O)Nc1ccc(C(=O)Oc2ccccc2)c(O)c1`, the AC40 is 14.2 µM.

Regarding `C/C(=N\OC(=O)c1ccc(F)cc1)c1ccc(F)c(F)c1`, the AC40 was 24.7 µM.

Take `Cc1c(/C=N/NC(=O)c2ccc(Br)o2)cnn1C`: the AC40 was 22.4 µM.

Take `Fc1cc(NCc2ccccc2)nc(NCc2ccccc2)n1`: the AC40 was 9.52 µM.

As for `N=c1sccn1CC(=O)Nc1cc(Cl)ccc1Oc1ccccc1`, the AC40 is > 26 µM (inactive).

As for `COc1cc(OC)cc(-c2nnc(Sc3ccc(C=O)cc3[N+](=O)[O-])o2)c1`, the AC40 is > 26 µM (inactive).

For `CC(=O)Oc1ccc(Cn2cnc3cc4ccccc4cc32)cc1`, the AC40 is 14.7 µM.

For `Cc1cccc(N2C(=O)C(O)=C(C(=O)c3cccs3)C2c2ccc(C(C)C)cc2)n1` (centres undefined), the AC40 was 9.04 µM.

With `CN(C)c1nc(N)nc(CSc2nnnn2-c2ccc(F)cc2)n1`, the AC40 was > 26 µM (inactive).

Consider `Cc1ccccc1OCCCC(=O)Nc1ccccc1C(F)(F)F`, for which the AC40 was > 26 µM (inactive).

For `CC1(C)CC(=O)C2=C(C1)Nc1cc3c(cc1C2c1ccc2c(c1)OCO2)OCO3` (centres undefined), the AC40 is 7.45 µM.

As to `O=C(OCc1csc(-c2ccccc2)n1)c1cccs1`, the AC40 is 0.901 µM.

On to `CNC(=O)C1CC(=O)N(c2ccc(OCC(=O)N3CCCC3)cc2)C1` (centres undefined), for which the AC40 was > 26 µM (inactive).

Consider `Cc1ccc(O)c(CNc2nccs2)c1`, for which the AC40 was 24.5 µM.

For `C=CCNC(=S)N/N=C/c1ccc(-c2ccc(Br)cc2)o1`, the AC40 was 22 µM.

For `Cc1ncc([N+](=O)[O-])n1CCOC(=O)c1cc(Cl)cc(Cl)c1N`, the AC40 is > 26 µM (inactive).

As to `ClC(Cl)c1nnc(-c2ccccc2)c(-c2c[nH]c3ccccc23)n1`, the AC40 is > 26 µM (inactive).

For `CCOC(=O)c1cc(C#N)c(SCc2ccc(C#N)cc2)nc1C`, the AC40 is > 26 µM (inactive).

Consider `S=C(NC1CCCCC1)NC1CC2C=CC1C2` (centres undefined), for which the AC40 is > 26 µM (inactive).

Regarding `C=CCN(C(=O)CCC(=O)Nc1cc(C)on1)C(C(=O)NC(C)(C)C)c1cccc(OC)c1OC` (centres undefined), the AC40 is > 26 µM (inactive).

In the case of `CN(C)C(=O)c1ccc(=O)n(Cc2ccc(Cl)cc2Cl)c1`, the AC40 was > 26 µM (inactive).

Take `COc1ccc2cc(/C=C/C(=O)N3CCN(CC(=O)N4CCCCCC4)CC3)ccc2c1`: the AC40 was 12.6 µM.

With `COCOc1cc(O)c(C(=O)/C=C/c2ccccc2)c(OCOC)c1`, the AC40 is 7.9 µM.

In the case of `Cc1nc2ccc(Br)cc2c(=O)n1Cc1cccs1`, the AC40 is > 26 µM (inactive).

With `CCOC(=O)c1c(C)c(C(=O)Nc2ccc3c(c2)OCO3)c(C)n1C`, the AC40 was 24.1 µM.

`c1ccc(CCc2ccncc2)cc1`: the AC40 was > 26 µM (inactive).

With `Fc1ccccc1-c1nc2nc3ccccc3nc2n1CC1CCCO1` (centres undefined), the AC40 is 21.8 µM.

For the compound `CCc1nc(SCC(=O)c2ccc(Cl)s2)c2oc3ccccc3c2n1`, the AC40 was 18.6 µM.

Turning to `Cc1cnn(-c2cc(N/N=C/c3cccc(F)c3)ncn2)c1`, the AC40 was 9.32 µM.

`CCN(C(=O)c1cc2c(=O)[nH]c3ccc(C)cc3c2s1)c1ccccc1F`: the AC40 was > 26 µM (inactive).

On to `Cc1ccc(-c2nn(-c3cc(Cl)ccc3[N+](=O)[O-])c(=O)c3ccccc23)cc1`, for which the AC40 is > 26 µM (inactive).

Take `c1ccc2c3c([nH]c2c1)CCNC3`: the AC40 is > 26 µM (inactive).

In the case of `CC(C)OC(=O)c1ccc(COc2ccc3ccc(=O)oc3c2)o1`, the AC40 was 3.16 µM.

Turning to `Cc1ccc(NC2c3ncccc3C(=O)N2C2CCCCC2)cc1` (centres undefined), the AC40 is > 26 µM (inactive).

For `C=CCn1c(-c2cc(-c3ccccc3)sc2N)n[nH]c1=S`, the AC40 was 12.3 µM.

In the case of `CCCc1cc(=O)[nH]c(SCC(=O)Nc2ccc(C)cc2)n1`, the AC40 was > 26 µM (inactive).

As to `COC(=O)C(C)N(C(=O)c1ccc(C(=O)c2ccccc2)cc1)c1c(C)cccc1C` (centres undefined), the AC40 is 19.3 µM.

In the case of `NC(=O)c1c(NC(=O)Cc2ccccc2)sc2c1CCN(Cc1ccccc1)C2`, the AC40 was > 26 µM (inactive).

Regarding `COc1cc2c(cc1NC(=O)COC(=O)[C@@H](NS(=O)(=O)c1ccccc1)C(C)C)oc1ccccc12`, the AC40 was > 26 µM (inactive).

Take `Cc1cc(C(=O)N2CCN(c3ccccn3)CC2)c(C)o1`: the AC40 is > 26 µM (inactive).

For the compound `Cc1cc(/C=C(/C#N)c2cccc(Cl)c2)c(C)n1C`, the AC40 was > 26 µM (inactive).

Turning to `C=CCN(C(=O)CCc1ccccc1OC)c1nc(-c2ccc(S(C)(=O)=O)cc2)cs1`, the AC40 is > 26 µM (inactive).

Turning to `O=C(O)CC12C[C@H]3C[C@@H](C1)CC(n1ncc(N4CCN(c5ccccc5)CC4)c(Cl)c1=O)(C3)C2`, the AC40 was > 26 µM (inactive).

In the case of `CC1(c2cccs2)CC(c2cccs2)=C(C#N)C(=O)N1` (centres undefined), the AC40 is > 26 µM (inactive).

As to `CCc1ccc(CN2C(=O)c3ccccc3C2C(=O)NCC2CCCO2)cc1` (centres undefined), the AC40 is > 26 µM (inactive).

For the compound `CCOC(=O)CN1C=C(c2ccc3ccccc3n2)C(C[N+](=O)[O-])c2ccccc21` (centres undefined), the AC40 was 3.31 µM.

Consider `CC1(C)CC(=O)C2=C(C1)OC(N)=C(C#N)C2C#Cc1ccccc1` (centres undefined), for which the AC40 is 10.4 µM.

Consider `O=[N+]([O-])c1ccc(-c2csc(Nc3ccccc3)[n+]2Cc2ccccc2)cc1`, for which the AC40 was 10.9 µM.

Turning to `CN(/C(=N\S(=O)(=O)c1ccccc1)c1ccccc1)c1ccc(O)cc1`, the AC40 was > 26 µM (inactive).

With `C(=N\N1CCN(Cc2cccc3ccccc23)CC1)/c1cccnc1`, the AC40 was > 26 µM (inactive).

Turning to `COC(=O)c1ccc(OC(=O)CCN2C(=O)C3CCCCC3C2=O)cc1` (centres undefined), the AC40 is > 26 µM (inactive).

As to `CCn1c(SCC(=O)c2ccc(Cl)cc2)nnc1-c1ccoc1C`, the AC40 is 11.1 µM.

Regarding `O=C(NCC1CCCO1)c1nn2c(C(F)(F)F)cc(-c3cc(Br)cs3)nc2c1Br` (centres undefined), the AC40 is > 26 µM (inactive).

As for `CCCCc1c(O)nc(SCC(=O)N2CCOCC2)n(-c2ccc(OC)cc2)c1=O`, the AC40 is > 26 µM (inactive).

Consider `Cc1nc2ccccc2nc(C)c1=NOCc1ccccc1Cl`, for which the AC40 was 3.97 µM.

In the case of `CC(C)(C)c1cc(NC(=O)CCSc2nnc3ccccn23)cc(C(C)(C)C)c1`, the AC40 was > 26 µM (inactive).

As for `Cc1cc(-c2nnc(CCC(=O)N(C)Cc3cccc4ccccc34)o2)no1`, the AC40 is 12 µM.

For the compound `COc1ccc(NC(=O)NNC(=O)c2cc3occc3n2C)c(OC)c1`, the AC40 is > 26 µM (inactive).

In the case of `O=C(NCc1cccc(F)c1)c1noc2c1CCCC2`, the AC40 was 6.03 µM.

As to `CCOCCCNC(=S)Nc1ccc2nc(N3CCOCC3)cc(C)c2c1`, the AC40 was > 26 µM (inactive).

Regarding `O=C1NC(=O)[C@]2(Cc3ccccc3N3CCN(c4ccccc4)CC32)C(=O)N1Cc1ccccc1` (some centres undefined), the AC40 is 2.51 µM.

Take `Cc1nonc1OCCNCCNc1ccc([N+](=O)[O-])cc1Cl`: the AC40 is > 26 µM (inactive).

As for `CC(C)c1ccc(C2NC(=O)c3ccccc3O2)cc1` (centres undefined), the AC40 is 5.17 µM.

Turning to `Cc1[nH]nc2c1C(c1cc(Br)cs1)C(C#N)=C(N)O2` (centres undefined), the AC40 is 12 µM.

Consider `COc1ccc2nc(SC)c(C#N)cc2c1`, for which the AC40 was > 26 µM (inactive).

With `CCCNC(=O)NC(=O)CSc1cccc(C(F)(F)F)c1`, the AC40 was 13.5 µM.

`Cc1nc(/C(N)=N/OC(=O)Cc2ccccc2)no1`: the AC40 was 22.2 µM.

In the case of `COc1cnn(-c2cc(Oc3ccc(C)cc3)ncn2)c(=O)c1Cl`, the AC40 was > 26 µM (inactive).

With `COC(=O)CC1C(=O)NCCN1C(=O)c1ccc(S(=O)(=O)N2CCOCC2)cc1` (centres undefined), the AC40 is > 26 µM (inactive).

Consider `COc1ccc(N=C2NC(=O)/C(=C\C=C\c3ccco3)S2)cc1`, for which the AC40 was 12.1 µM.

For the compound `O=C(Nc1ccccc1C(=O)OCC(=O)c1c[nH]c2ccccc12)c1ccco1`, the AC40 was > 26 µM (inactive).

`COc1ccc(CCNc2ncnc3c2c(C)c(C)n3CCO)cc1OC`: the AC40 was > 26 µM (inactive).

As for `CCOC(=O)/C=C/C(=O)N1CCc2ccccc21`, the AC40 was > 26 µM (inactive).

Consider `CC1=Nc2cc(C(=O)O)ccc2Sc2c(C)ccc(C)c21`, for which the AC40 is > 26 µM (inactive).

Turning to `Cc1cccc(CN(C(=S)Nc2c(C)cccc2C)c2cccnc2)c1`, the AC40 was 24.7 µM.

For the compound `Cc1ccc(C(=O)Cn2nc(C(=O)O)c3ccccc3c2=O)cc1C`, the AC40 is > 26 µM (inactive).

Take `Cn1ncc(Br)c1C(=O)N1CCOCC1`: the AC40 was > 26 µM (inactive).

On to `Cn1cc(C(=O)N/N=C/c2cc(Br)cs2)c2ccccc21`, for which the AC40 is 11.3 µM.

`Cc1cc(-c2nc3ncccc3o2)ccc1NC(=S)NC(=O)C(C)C`: the AC40 was 7.32 µM.

As to `Cc1ccc(CN(C)C(=O)C2CCC(=O)N(CCc3ccccc3)C2)o1` (centres undefined), the AC40 was 9.82 µM.

With `COc1cccc(CN2CC(C(=O)NCc3ccc(C)o3)CCC2=O)c1` (centres undefined), the AC40 is > 26 µM (inactive).

As for `O=C(CSc1nc2ccccc2c2nc3ccccc3n12)NCc1ccco1`, the AC40 is 10.1 µM.

As to `[O-]/[N+](=C\c1ccc(OC(F)F)cc1)c1ccccc1`, the AC40 is > 26 µM (inactive).

As to `COCCCN(CC(=O)O)S(=O)(=O)c1cccc(Cl)c1`, the AC40 is > 26 µM (inactive).

As to `CCCn1c(SCc2nc3sc(C)c(C)c3c(=O)[nH]2)nc2ccccc2c1=O`, the AC40 is > 26 µM (inactive).

For the origin of these results see PubChem BioAssay AID602296 (Broad Institute, 2012).
